Where “and” joins values, the source holds several entries; their conditions need not be identical. Equal values may be shown once.
Experiments:
[1] = system: Huh-7 cells; experiment: Whole genome bisulfite sequencing (WGBS), promoter 5mCpG demethylation; format: cell-based, human; details: Huh-7, HG 72 h, 25 μM 4 h
Method: Each sample, 2 μg, was sent to EpigenDx, Inc. (Hopkinton, Mass.) for analysis of global methylation bisulfite sequencing. The same samples, 6 μg, were sent to Novogene Co., Ltd (Tianjin, China) for analysis of whole genome bisulfite sequencing (WGBS). Total RNA was isolated using the Promega SV total RNA isolation system (Madison, Wis.) with DNase treatment. Each sample, 2 μg, was used for the first-strand cDNA synthesis as recommended by the manufacturer (Invitrogen, Carlsbad, Calif.). Real-time RT-PCR was performed using SYBR Green as the indicator on ABI 7500 Fast Real-Time PCR System (Applied Biosystems, Foster City, Calif.). Amplifications of j-actin or GAPDH were used as internal controls. Relative messenger RNA (mRNA) expression was quantified with the comparative cycle threshold (Ct) method using the primer set shown in Table 1.1 and was expressed as 2^−ΔΔct.
Each sample, 5.2 μg of genomic DNA spiked with 26 ng lambda DNA, was fragmented by sonication to 200-300 bp with Covaris S220, followed by end repair and adenylation. Cytosine-methylated barcodes were ligated to sonicated DNA per the manufacturer's instructions. These DNA fragments were treated twice with bisulfite using EZ DNA Methylation-Gold™ Kit™ (Zymo Research) before the resulting single-strand DNA fragments were PCR amplified using KAPA HiFi Hot Start Uracil and Ready Mix (2×). Library concentration was quantified by Qubit® 2.0 Flurometer (Life Technologies, CA, USA) and quantitative PCR, and the insert size was assayed on an Agilent Bioanalyzer 2100 system.
The library preparations were sequenced on an Illumina Hiseq 2500/4000 or Novaseq™ platform and 125 bp/150 bp paired-end reads were generated. Image analysis and base calling were performed with Illumina CASAVA pipeline. Trimmomatic (Trimmomatic-0.36) software was used for quality control. Bismark software (version 0.16.3; Krueger F, 2011) was used to perform alignments of bisulfite-treated reads to a reference genome (−X 700-dovetail). DSS software (23) was used to identify differentially methylated regions (DMRs). KOBAS software was used to test the statistical enrichment of DMR related genes in the Kyoto Encyclopedia of Genes and Genomes (KEGG) pathways.
Each sample (6 μg) was used for analysis of the whole genome bisulfite sequencing (WGBS).

[2] = Metabolite profiling of plasma, urine, feces, intravenous dose; format: in vivo, rats; details: intravenous 10 mg/kg
Method: Plasma pools were made from Group 1 rats at the 0.083, 0.25, 0.5, and 1-hour collection time points.
Urine pools were prepared for Group 2 at 0 to 6 and 6 to 12 hours post-dose.
Feces pools were prepared for Group 2 at 0 to 12, 12 to 24, and 24 to 48 hours post-dose.

amount in feces, % of dose ([2]; 0 to 48 hours post-dose pools): 2 % of dose
share of the exposure (AUC) to 25HC3S related radioactivity, plasma ([2]; up to 1 hour post-dose): approximately 54%
Structure (SMILES): C[C@H](CCCC(C)(C)O)[C@H]1CC[C@H]2[C@@H]3CC=C4C[C@@H](OS(=O)(=O)O)CC[C@]4(C)[C@H]3CC[C@]12C [25HC3S, 5-Cholesten-3β, 25-diol 3-sulfate]
DMR (Methylation %) 25HC3S-Vehicle, DRD5P2 promoter ([1]; Chr1 1.43E+08): −34.73%
DMR (Methylation %) 25HC3S-Vehicle, ITPKB promoter ([1]; Chr1 2.27E+08): −25.12%
DMR (Methylation %) 25HC3S-Vehicle, MAP4K4 promoter ([1]; Chr2 1.02E+08): −13.63%
DMR (Methylation %) 25HC3S-Vehicle, ROCK2 promoter ([1]; Chr2 11344628-11344733): −23.14%
DMR (Methylation %) 25HC3S-Vehicle, PPP1CB promoter ([1]; Chr2 28751716-28751798): −10.93%
DMR (Methylation %) 25HC3S-Vehicle, ADCY5 promoter ([1]; Chr3 1.23E+08): −30.44%
DMR (Methylation %) 25HC3S-Vehicle, HRH1 promoter ([1]; Chr3 11154292-11154354): −25.48%
DMR (Methylation %) 25HC3S-Vehicle, PLCD1 promoter ([1]; Chr3 38029863-38030016): −24.31%
DMR (Methylation %) 25HC3S-Vehicle, DUSP7 promoter ([1]; Chr3 52056416-52056485): −40.47%
DMR (Methylation %) 25HC3S-Vehicle, CACNA1D promoter ([1]; Chr3 53494583-53494705): −20.46%
DMR (Methylation %) 25HC3S-Vehicle, RAPGEF2 promoter ([1]; Chr4 1.59E+08): −36.05%
DMR (Methylation %) 25HC3S-Vehicle, PDE4D promoter ([1]; Chr5 59893498-59893718): −27.84%
DMR (Methylation %) 25HC3S-Vehicle, AFDN promoter ([1]; Chr6 1.68E+08): −30.68%
DMR (Methylation %) 25HC3S-Vehicle, AL671762.1 promoter ([1]; Chr6 31828019-31828149): −27.17%
DMR (Methylation %) 25HC3S-Vehicle, CREB5 promoter ([1]; Chr7 28489448-28489601): −29.31%
DMR (Methylation %) 25HC3S-Vehicle, GLI3 promoter ([1]; Chr7 42228171-42228223): −19.62%
DMR (Methylation %) 25HC3S-Vehicle, ADCY1 promoter ([1]; Chr7 45574500-45574591): −14.76%
DMR (Methylation %) 25HC3S-Vehicle, VAV2 promoter ([1]; Chr9 1.34E+08): −33.11%
DMR (Methylation %) 25HC3S-Vehicle, GNAQ promoter ([1]; Chr9 78032198-78032440): −11.92%
DMR (Methylation %) 25HC3S-Vehicle, PTCH1 promoter ([1]; Chr9 95508446-95508561): −12.09%
DMR (Methylation %) 25HC3S-Vehicle, GABBR2 promoter ([1]; Chr9 98708549-98708610): −21.84%
DMR (Methylation %) 25HC3S-Vehicle, ADRB1 promoter ([1]; Chr10 1.14E+08): −33.1%
DMR (Methylation %) 25HC3S-Vehicle, CACNB2 promoter ([1]; Chr10 18140401-18140547): −21.91%
DMR (Methylation %) 25HC3S-Vehicle, MAPK8 promoter ([1]; Chr10 48306510-48306561): −29.24%
DMR (Methylation %) 25HC3S-Vehicle, HRAS promoter ([1]; Chr11 535071-535127): −18.85%
DMR (Methylation %) 25HC3S-Vehicle, DUSP8 promoter ([1]; Chr11 1572973-1573032): −30.51%
DMR (Methylation %) 25HC3S-Vehicle, BAD promoter ([1]; Chr11 64286088-64286179): −42.33%
DMR (Methylation %) 25HC3S-Vehicle, RELA promoter ([1]; Chr11 65661914-65662035): −35.1%
DMR (Methylation %) 25HC3S-Vehicle, CACNA1C-AS1 promoter ([1]; Chr12 2691335-2691438): −20.97%
DMR (Methylation %) 25HC3S-Vehicle, NTF3 promoter ([1]; Chr12 5432796-5432882): −33.48%
DMR (Methylation %) 25HC3S-Vehicle, EDNRB promoter ([1]; Chr13 77919496-77919743): −34.09%
DMR (Methylation %) 25HC3S-Vehicle, ABCC4 promoter ([1]; Chr13 95301634-95301736): −33.06%
DMR (Methylation %) 25HC3S-Vehicle, ADCY4 promoter ([1]; Chr14 24334570-24334719): −18.63%
DMR (Methylation %) 25HC3S-Vehicle, MAX promoter ([1]; Chr14 65102273-65102358): −31.75%
DMR (Methylation %) 25HC3S-Vehicle, SLC8A3 promoter ([1]; Chr14 70188747-70189089): −28.51%
DMR (Methylation %) 25HC3S-Vehicle, TGFB3 promoter ([1]; Chr14 75982395-75982557): −23.74%
DMR (Methylation %) 25HC3S-Vehicle, CACNA1H promoter ([1]; Chr16 1194928-1195015): −26.48%
DMR (Methylation %) 25HC3S-Vehicle, GRIN2A promoter ([1]; Chr16 10183302-10183414): −19.63%
DMR (Methylation %) 25HC3S-Vehicle, GRIN2C promoter ([1]; Chr17 74861739-74861853): −37.6% and −37.64%
DMR (Methylation %) 25HC3S-Vehicle, SPHK1 promoter ([1]; Chr17 76383180-76383291): −24.74%
DMR (Methylation %) 25HC3S-Vehicle, GRIN3B promoter ([1]; Chr19 1000331-1000405): −34.67%
DMR (Methylation %) 25HC3S-Vehicle, GADD45B promoter ([1]; Chr19 2474806-2474873): −28.6%
DMR (Methylation %) 25HC3S-Vehicle, GNA11 promoter ([1]; Chr19 3094383-3094442): −32.66%
DMR (Methylation %) 25HC3S-Vehicle, AC005264.2 promoter ([1]; Chr19 3156392-3156457): −15.76%
DMR (Methylation %) 25HC3S-Vehicle, CACNA1A promoter ([1]; Chr19 13226635-13226711): −39.91%
DMR (Methylation %) 25HC3S-Vehicle, CTB-186G2.1 promoter ([1]; Chr19 38596260-38596495): −34.3%
DMR (Methylation %) 25HC3S-Vehicle, MAP4K1 promoter ([1]; Chr19 38596260-38596495): −34.3%
DMR (Methylation %) 25HC3S-Vehicle, ATP1A3 promoter ([1]; Chr19 41999134-41999316): −15.75%
DMR (Methylation %) 25HC3S-Vehicle, GIPR promoter ([1]; Chr19 45668710-45668767): −10.04%
DMR (Methylation %) 25HC3S-Vehicle, CACNG8 promoter ([1]; Chr19 53961377-53961479): −31.18%
DMR (Methylation %) 25HC3S-Vehicle, GNAS promoter ([1]; Chr20 58888598-58888893): −25.68%
DMR (Methylation %) 25HC3S-Vehicle, MAPK1 promoter ([1]; Chr22 21867450-21867512): −7.66%
DMR (Methylation %) 25HC3S-Vehicle, PDGFB promoter ([1]; Chr22 39243967-39244084): −30.51%
